Literature values in PMC11267547, “Advancing drug discovery through assay development: a survey of tool compounds within the human solute carrier superfamily” (Frontiers in Pharmacology, 2024).

Legend:
[1] = test system: SLC2A1; parameters: method as in ChEMBL, PubChem; conditions: SLC2A1, known data from the KNIME workflow; ref ChEMBL, PubChem; cited from earlier work
[2] = test system: SLC6A19; parameters: method as in GtoPdb, pubmed 30589598; conditions: SLC6A19, known data from the KNIME workflow; ref GtoPdb, pubmed 30589598; cited from earlier work
[3] = test system: SLC22A2; parameters: method as in PMID 9260930; conditions: ChEMBL CHEMBL2076808; ref PMID 9260930; cited from earlier work
[4] = test system: SLC22A3; parameters: method as in PMID 10966924; conditions: ChEMBL CHEMBL2078549; ref PMID 10966924; cited from earlier work
[5] = test system: SLC2A9 (GLUT9); conditions: cited from earlier work
[6] = test system: SLC22A6 (OAT1); conditions: cited from earlier work
[7] = test system: ABCG2; parameters: method as in Zhao et al., 2022; conditions: ref Zhao et al., 2022; cited from earlier work
[8] = test system: HRH1; parameters: method as in other_targets_pubmed_ids column; conditions: cited from earlier work
[9] = test system: HTR2B; parameters: method as in other_targets_pubmed_ids column; conditions: cited from earlier work
[10] = test system: KCNK9; parameters: method as in other_targets_pubmed_ids column; conditions: cited from earlier work
[11] = test system: SIGMAR1; parameters: method as in pubmed 7990111, 9057857, 12801223; conditions: ref pubmed 7990111, 9057857, 12801223; cited from earlier work

## Cc1c(NC(=O)c2cc(C(N)=O)nc3cc(F)ccc23)c(C(F)(F)F)nn1Cc1ccc(C#N)cc1 [BAY-876]
[1]
  primary_SLC_act: 8.03

## CCNC(=O)/C=C/c1cccc(Br)c1 [Cinromide]
[2]
  primary_SLC_act: 6.4

## CNCCCN1c2ccccc2CCc2ccccc21 [Desipramine]
[3]
  primary_SLC_act, SLC22A2: 4.8
[4]
  primary_SLC_act, SLC22A3: 4.85

## N#Cc1ccc(Nc2cnccc2SCc2ccccc2C(=O)O)c2ccccc12 [KPH2f]
[5]; SLC2A9, known data from the KNIME workflow, ref ChEMBL, pubmed 34998055
  primary_SLC_act: 5.03
[5]; ref Zhao et al., 2022
  IC50: 9.37 µM
[6]; ChEMBL CHEMBL5157441, ref PMID 34998055
  primary_SLC_act, SLC22A6: 4.49
[6]; ref Zhao et al., 2022
  IC50: 32.1 µM
[7]
  IC50: 26.7 µM

## CCOC(=O)N1CCC(=C2c3ccc(Cl)cc3CCc3cccnc32)CC1 [Loratadine]
[8]
  other_targets_act: 6.72
[9]
  other_targets_act: 6.71
[10]
  other_targets_act: 4.2

## Fc1ccc(C(OCCN2CCN(CCCc3ccccc3)CC2)c2ccc(F)cc2)cc1 [Vanoxerine (GBR12909), Vanoxerine]
[11]
  other_targets_act: 7.37
